These results are taken from publication PMC8230956, “Inhibition of the Human Hsc70 System by Small Ligands as a Potential Anticancer Approach” (Cancers, 2021).

For one data set, the target named is T1, Hsc70 + DnaJB1 (Homo sapiens, UniProt P11142).
T1 construct: His6-SUMO (N, cleaved yes); made in house; host or cells: E. coli BL21 Rosetta
Briefly: Reactivation of G6PDH aggregates by the binary chaperone mixture. Type of data set: biochemical. To be noted: 2 µM Hsc70, 0.5 µM DnaJB1, 0.4 µM G6PDH aggregates; means ± SD of three experiments. How it is done:
(§1) Subsequently, aggregates were stabilized for 30 min at 30 °C. The properties of these aggregates have been previously reported, and typically show a hydrodynamic radius of approximately 500–600 nm. Aggregates (0.4 µM final concentration) were added to samples containing 2 µM Hsc70 and 0.5 µM DnaJB1 in the absence or presence of 0.4 µM Apg2. […] A preincubation of the samples with compounds for 30 min at 30 °C was done prior to starting the reaction. The reaction was started with the addition of 2 mM ATP and the ATP-regeneration system (3 mM PEP and 20 ng/mL PK). Final sample volume was 100 µL. Reactivation was monitored at 30 °C for 180 min. At different times of the reaction, 5 µL of sample were added to 250 µL buffer containing 50 mM Tris-HCl pH 7.5, 50 mM KCl, 20 mM MgCl2, 10 mM DTT, 1 mM NADP^+, 2.5 mM G6P (Sigma-Aldrich). NADPH formation was measured recording the absorbance increase at 340 nm in a Synergy HTX plate reader (BioTek, Winooski, VT, USA) in transparent 96-well plates with flat bottom (Sarstedt, Newton, NC, USA) for 5 min. Reactivation percentages were calculated considering the slope of NADPH formation for native G6PDH as 100% activity. […] IC50 values were estimated with a sigmoidal dose-response ligand-binding equation.

The target of a further data set is T2, Hsc70 + DnaJB1 + Apg2 (Homo sapiens, UniProt P11142+P34932).
T2 construct: His6-SUMO (N, cleaved yes); made in house; host or cells: E. coli BL21 Rosetta
T2 sequence (P11142 whole entry): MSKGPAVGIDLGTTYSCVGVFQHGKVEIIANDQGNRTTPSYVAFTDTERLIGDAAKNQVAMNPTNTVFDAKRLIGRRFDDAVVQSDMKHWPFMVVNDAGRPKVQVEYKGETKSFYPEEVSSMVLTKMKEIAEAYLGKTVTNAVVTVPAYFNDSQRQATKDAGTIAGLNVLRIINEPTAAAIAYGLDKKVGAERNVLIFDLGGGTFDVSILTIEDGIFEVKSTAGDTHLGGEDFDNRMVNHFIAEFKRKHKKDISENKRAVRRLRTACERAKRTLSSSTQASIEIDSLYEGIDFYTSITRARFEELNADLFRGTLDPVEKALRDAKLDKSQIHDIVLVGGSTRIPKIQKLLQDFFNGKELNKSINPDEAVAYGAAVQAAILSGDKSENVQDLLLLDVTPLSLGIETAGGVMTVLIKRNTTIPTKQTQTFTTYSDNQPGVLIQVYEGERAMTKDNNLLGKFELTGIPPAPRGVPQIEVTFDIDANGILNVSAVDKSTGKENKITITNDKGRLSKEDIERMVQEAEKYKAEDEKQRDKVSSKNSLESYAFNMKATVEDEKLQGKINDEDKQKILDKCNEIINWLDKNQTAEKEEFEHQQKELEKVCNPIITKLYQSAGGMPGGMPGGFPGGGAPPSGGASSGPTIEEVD
T2 sequence (P34932 whole entry): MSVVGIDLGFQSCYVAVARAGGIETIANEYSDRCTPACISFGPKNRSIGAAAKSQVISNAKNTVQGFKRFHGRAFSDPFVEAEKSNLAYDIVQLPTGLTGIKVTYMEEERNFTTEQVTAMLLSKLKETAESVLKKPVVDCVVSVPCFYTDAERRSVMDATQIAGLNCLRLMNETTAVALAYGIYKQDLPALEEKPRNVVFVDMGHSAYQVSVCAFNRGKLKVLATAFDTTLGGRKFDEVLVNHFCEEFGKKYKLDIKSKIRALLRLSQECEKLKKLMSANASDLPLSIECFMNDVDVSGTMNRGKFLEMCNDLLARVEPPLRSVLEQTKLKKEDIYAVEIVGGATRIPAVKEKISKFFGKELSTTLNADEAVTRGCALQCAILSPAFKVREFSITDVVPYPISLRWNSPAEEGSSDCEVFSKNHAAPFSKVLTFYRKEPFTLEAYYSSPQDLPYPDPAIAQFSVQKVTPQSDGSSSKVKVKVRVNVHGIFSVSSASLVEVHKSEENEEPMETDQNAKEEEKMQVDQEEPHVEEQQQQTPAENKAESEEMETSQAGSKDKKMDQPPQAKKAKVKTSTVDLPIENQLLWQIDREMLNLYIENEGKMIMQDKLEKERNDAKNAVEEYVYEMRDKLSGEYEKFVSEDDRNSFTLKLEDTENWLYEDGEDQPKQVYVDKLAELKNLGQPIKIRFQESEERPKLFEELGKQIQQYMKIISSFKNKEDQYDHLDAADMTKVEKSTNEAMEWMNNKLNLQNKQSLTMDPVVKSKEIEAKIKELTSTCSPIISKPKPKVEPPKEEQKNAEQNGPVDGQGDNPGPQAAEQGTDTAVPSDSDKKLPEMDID
Briefly: Reactivation of G6PDH aggregates by the ternary chaperone mixture. Type of data set: biochemical. How it is done:
as §1

The test system of data set [1] is non-transformed cell lines. Details: method as in PMID 19027770, PMID 17981006, PMID 18171263. The settings on record: cited from earlier work.
For another data set, the system named is A2058 cells. As to the kind of experiment: Cell viability assay (XTT or Presto Blue), A2058. The settings on record: for Effect on cell viability (toxicity), A2058: increasing concentrations, different incubation times. The data set is classed as cell-based, human. The source says: (§2) Cells grew in Dulbecco’s Modified Eagle Medium (DMEM) high glucose (Sigma-Aldrich) supplemented with heat-inactivated 10% fetal bovine serum (FBS) (HyClone™, GE Healthcare, IL, USA). […] Primary human melanocytes (human epidermal melanocytes, neonatal, light pigmented, HEMn-LP) were purchased from Invitrogen (Waltham, MA, USA, C-002-5C).
(§3) Two colorimetric assays were used to study the cytotoxic effects of the selected compounds: the XTT Cell Proliferation Kit II (Roche) and Presto Blue™ Cell Viability Reagent (Invitrogen). Exponentially growing cell lines seeded at 20,000 cells/well in 96-well flat bottom plates (Sarstedt) were incubated overnight in 150 µL of the corresponding growth medium. The following day, the medium was replaced by fresh medium (150 µL) containing 1% FBS (except for melanocytes) and 0.9% DMSO in the presence or absence of different concentrations of compounds. A2058 and MeWo cells were treated with increasing compound concentrations for cell viability assays. […] Cell viability in plates treated with XTT was determined by reading the absorbance at 490 nm in a Synergy HTX plate reader (BioTek). […] In both cases, the absorbance of the medium was subtracted from cell-containing wells. Control values (without compounds but with 0.9% DMSO) were taken as 100% viability.
A general note: Formazan colour is commonly taken as a measure of viable cells.

A further data set concerns MeWo cells. As to the kind of experiment: Cell viability assay (XTT or Presto Blue), MeWo. The data set is classed as cell-based, human. To be noted: increasing concentrations, different incubation times.
Text: as §2, §3

The subject of the next data set is fibroblasts (MRC-5). Briefly: Cell viability assay (XTT or Presto Blue), fibroblasts. Type of data set: cell-based, human. The settings on record: 20 µM, up to 12 h.
Text: as §2, §3

Data set [2] deals with melanocytes (HEMn-LP non-malignant skin cells). As to the kind of experiment: Cell viability assay (XTT or Presto Blue), primary melanocytes. The data set is classed as cell-based, human. To be noted: 20 µM, up to 12 h.
Text: as §2, §3

Setting [3] is: 2 µM Hsc70, 0.5 µM DnaJB1, 0.4 µM Apg2, 0.4 µM G6PDH aggregates, means ± SD of three experiments, read-out: IC50 G6PDH Reactivation Hsc70 + DnaJB1 + Apg2.

The term IC50 denotes the concentration at which inhibition is half-maximal.

Where two headings read alike, the source gives them in different places.

T1 sequence (P11142 whole entry): as the sequence (P11142 whole entry) above

Take `[H]/N=C(\N/C(=N/[H])NCCCCCCNC(=N)NC(=N)Nc1ccc(Cl)cc1)Nc1ccc(Cl)cc1` [Compound 1, (1E)-2-[6-[[amino-[(E)-[amino-(4-chloroanilino)methylidene]amino]methylidene]amino]hexyl]-1-[amino-(4-chloroanilino)methylidene]guanidine]: the IC50 at Hsc70 + DnaJB1 is 11.9 ± 0.2 µM; on Hsc70 + DnaJB1 + Apg2 (setting [3]), 14.5 ± 1.8 µM. Moreover, the “Toxicity in non-transformed cell lines” value in data set [1] was “toxicity in several non-transformed cell lines”. In addition, the “Effect on cell viability (toxicity), A2058” value (shortened to “Effect … A2058”) in the data set with A2058 cells is given as “Cell viability decreased”. Moreover, the “Effect on cell viability (toxicity), MeWo” value (shortened to “Effect … MeWo”) in the data set on MeWo cells was “Cell viability decreased”.
For the molecule `CCc1oc2ccccc2c1C(=O)c1cc(Br)c(O)c(Br)c1` [Compound 3, (3,5-dibromo-4-hydroxyphenyl)-(2-ethyl-1-benzofuran-3-yl)methanone], the results for the IC50 at Hsc70 + DnaJB1 and on Hsc70 + DnaJB1 + Apg2 were 10.1 ± 0.4 µM and 17.6 ± 0.1 µM, respectively. Further, the “Effect … A2058” value with A2058 cells is recorded as “no toxicity was observed”. Also, the “Effect … MeWo” value with MeWo cells is recorded as “no toxicity was observed”.
Take `CC=C(C)C(=O)OC1C(OC(C)=O)C2(CO)C(O)CC3(C)C(=CCC4C5(C)CCC(OC6OC(C(=O)O)C(OC7OC(CO)C(O)C(O)C7O)C(O)C6OC6OC(CO)C(O)C(O)C6O)C(C)(CO)C5CCC43C)C2CC1(C)C` (centres unmarked) [Compound 4]: the IC50 on Hsc70 + DnaJB1 stood at 37.3 ± 1.8 µM; on Hsc70 + DnaJB1 + Apg2 (setting [3]) it was 47 ± 5.6 µM.
With `Cl.O[C@@H](c1cc(C(F)(F)F)nc2c(C(F)(F)F)cccc12)[C@H]1CCCCN1` [Compound 5, (S)-[2,8-bis(trifluoromethyl)quinolin-4-yl]-[(2R)-piperidin-2-yl]methanol hydrochloride], the IC50 was determined as 107 ± 7.5 µM at Hsc70 + DnaJB1 and 97.3 ± 21.1 µM on Hsc70 + DnaJB1 + Apg2 (setting [3]). For the same molecule, the Toxicity in fibroblasts result in the data set with fibroblasts (MRC-5) was “no toxicity was observed”. For the same molecule, the “Effect … A2058” value with A2058 cells is “Cell viability decreased”. The “Fold lower toxic concentration in melanoma cell lines than IC50 for the isolated chaperone system” value in the data set on A2058 cells (melanoma cell lines (A2058 and MeWo) versus IC50 of the isolated chaperone system) is “around 7 fold”. Also, in data set [2], the Toxicity in melanocytes entry is reported as “no toxicity was observed”. In addition, the “Effect … MeWo” value with MeWo cells is recorded as “Cell viability decreased”.
For the molecule `O=C(O)Cc1cc(I)c(Oc2ccc(O)c(I)c2)c(I)c1` [Compound 6, 2-[4-(4-hydroxy-3-iodophenoxy)-3,5-diiodophenyl]acetic acid], the “Effect … A2058” value in the data set on A2058 cells was “no toxicity was observed”. In addition, the “Effect … MeWo” value in the data set on MeWo cells is “no toxicity was observed”.
